# Measurements taken from ChEMBL document CHEMBL1201862, “PubChem BioAssay data set” (2004).
#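 Following 48 hours of exposure in 96-well plates, responses at five concentrations were used to interpolate endpoints linearly. Abbreviation: GI50, concentration required for 50% inhibition of growth.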 Calls of active or inactive are those of the source. Rule as the data show it: active = GI50 up to about 1.1 µM and inactive = higher.
# Key:
# Experiment in all cases: NCI anticancer screen, dose series, 48 h
# [1] = test system: UACC-257
# [2] = test system: MDA-MB-435
# [3] = test system: RPMI-8226
# [4] = test system: ACHN
# [5] = test system: SR
# [6] = test system: HCT-15
# [7] = test system: UO-31
# [8] = test system: SN12C
# [9] = test system: EKVX
# [10] = test system: SF-295
# [11] = test system: HOP-62
# [12] = test system: A498
# [13] = test system: Malme-3M
# [14] = test system: SK-MEL-28
# [15] = test system: HCT-116
# [16] = test system: K562
# [17] = test system: SW-620
# [18] = test system: U-251
# [19] = test system: SK-MEL-2
# [20] = test system: MDA-MB-231
# [21] = test system: CAKI-1
# [22] = test system: IGROV-1
# [23] = test system: CCRF-CEM
# [24] = test system: UACC-62
# [25] = test system: TK-10
# [26] = test system: OVCAR-3
# [27] = test system: LOX IMVI
# [28] = test system: NCI/ADR-RES
# [29] = test system: DU-145
# [30] = test system: Hs-578T
# [31] = test system: HT-29
# [32] = test system: A549
# [33] = test system: SF-539
# [34] = test system: MCF7
# [35] = test system: NCI-H522
# [36] = test system: OVCAR-8
# [37] = test system: HCC 2998
# [38] = test system: NCI-H460
# [39] = test system: OVCAR-5
# [40] = test system: T47D
# [41] = test system: OVCAR-4
# [42] = test system: M14
# [43] = test system: PC-3
# [44] = test system: SK-OV-3
# [45] = test system: BT-549
# [46] = test system: SK-MEL-5
# [47] = test system: 786-0
# [48] = test system: COLO 205
# [49] = test system: RXF 393
# [50] = test system: KM12
# [51] = test system: MOLT-4
# [52] = test system: SNB-19
# [53] = test system: NCI-H23
# [54] = test system: SF-268
# [55] = test system: HL-60
# [56] = test system: NCI-H226
# [57] = test system: SNB-75
compound,measurement,setting,value
CN(C)CCn1c(=O)c2ccc(NCCCN(C)CCCNc3ccc4c(=O)n(CCN(C)C)c(=O)n5c6ccccc6c(=O)c3c45)c3c(=O)c4ccccc4n(c1=O)c23,GI50,[1],208 nM (active)
same,GI50,[2],< 15.1 nM (active)
same,GI50,[3],< 10 nM (active)
same,GI50,[4],< 10 nM (active)
same,GI50,[5],< 10 nM (active)
same,GI50,[6],< 10 nM
same,GI50,[7],< 28.5 nM (active)
same,GI50,[8],< 10 nM (active)
same,GI50,[9],51 nM (active)
same,GI50,[10],< 10 nM (active)
same,GI50,[11],< 16.1 nM (active)
same,GI50,[12],57.1 nM (active)
same,GI50,[13],361 nM (active)
same,GI50,[14],165 nM (active)
same,GI50,[15],< 10 nM (active)
same,GI50,[16],< 10 nM (active)
same,GI50,[17],< 10 nM (active)
same,GI50,[18],< 10 nM (active)
same,GI50,[19],107 nM (active)
same,GI50,[20],< 40.5 nM (active)
same,GI50,[21],17.2 nM (active)
same,GI50,[22],< 10 nM (active)
same,GI50,[23],< 10 nM (active)
same,GI50,[24],151 nM (active)
same,GI50,[25],59.3 nM (active)
same,GI50,[26],77.8 nM (active)
same,GI50,[27],< 10 nM (active)
same,GI50,[28],33.9 nM (active)
same,GI50,[29],< 10 nM (active)
same,GI50,[30],131 nM (active)
same,GI50,[31],< 10 nM (active)
same,GI50,[32],< 10 nM (active)
same,GI50,[33],< 10 nM (active)
same,GI50,[34],< 10 nM (active)
same,GI50,[35],< 10 nM (active)
same,GI50,[36],< 10 nM (active)
same,GI50,[37],< 11.5 nM (active)
same,GI50,[38],< 10 nM (active)
same,GI50,[39],145 nM (active)
same,GI50,[40],540 nM (active)
same,GI50,[41],< 10 nM (active)
same,GI50,[42],167 nM (active)
same,GI50,[43],< 10 nM (active)
same,GI50,[44],101 nM (active)
same,GI50,[45],117 nM (active)
same,GI50,[46],< 10.6 nM (active)
same,GI50,[47],< 10 nM (active)
same,GI50,[48],< 10 nM (active)
same,GI50,[49],< 14.9 nM (active)
same,GI50,[50],< 10 nM (active)
same,GI50,[51],< 10 nM (active)
same,GI50,[52],< 10 nM (active)
same,GI50,[53],< 10 nM (active)
same,GI50,[54],258 nM (active)
same,GI50,[55],< 10 nM (active)
same,GI50,[56],< 10 nM (active)
same,GI50,[57],< 11.7 nM (active)
